Source: PubChem BioAssay AID2060486 (Molecular Pharmacology Branch, DTP, NCI, 2025)

Tested on: IGROV1 complex spheroids (HUVEC, MSC), viability % test/control
Experiment: Anticancer human tumor IGROV1 cell line growth inhibition [GQUAD];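 further: spheroids exposed to compounds for 7 days before readout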;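 on viability, T/C: 100% = DMSO vehicle control viability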
Conditions: for IC50: curve of first compound; for viability, T/C: stronger effect = lower value
Method in brief: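 Viability of tumor cells grown as complex spheroids with endothelial and stromal cells, exposed to drug combinations. Top concentration at or near clinical Cmax (else 10 microM), diluted in half-log increments.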

[1] = second compound 0.0316 µM, first compound 0.0316 µM
[2] = second compound 0.0316 µM, first compound 0.1 µM
[3] = second compound 0.0316 µM, first compound 0.316 µM
[4] = second compound 0.0316 µM, first compound 1 µM
[5] = second compound 0.0316 µM, first compound 3.16 µM
[6] = second compound 0.0316 µM, first compound 10 µM
[7] = second compound 0.1 µM, first compound 0.0316 µM
[8] = second compound 0.1 µM, first compound 0.1 µM
[9] = second compound 0.1 µM, first compound 0.316 µM
[10] = second compound 0.1 µM, first compound 1 µM
[11] = second compound 0.1 µM, first compound 3.16 µM
[12] = second compound 0.1 µM, first compound 10 µM
[13] = second compound 0.316 µM, first compound 0.0316 µM
[14] = second compound 0.316 µM, first compound 0.1 µM
[15] = second compound 0.316 µM, first compound 0.316 µM
[16] = second compound 0.316 µM, first compound 1 µM
[17] = second compound 0.316 µM, first compound 3.16 µM
[18] = second compound 0.316 µM, first compound 10 µM
[19] = second compound 1 µM, first compound 0.0316 µM
[20] = second compound 1 µM, first compound 0.1 µM
[21] = second compound 1 µM, first compound 0.316 µM
[22] = second compound 1 µM, first compound 1 µM
[23] = second compound 1 µM, first compound 3.16 µM
[24] = second compound 1 µM, first compound 10 µM
[25] = second compound 3.16 µM, first compound 0.0316 µM
[26] = second compound 3.16 µM, first compound 0.1 µM
[27] = second compound 3.16 µM, first compound 0.316 µM
[28] = second compound 3.16 µM, first compound 1 µM
[29] = second compound 3.16 µM, first compound 3.16 µM
[30] = second compound 3.16 µM, first compound 10 µM
[31] = second compound 10 µM, first compound 0.0316 µM
[32] = second compound 10 µM, first compound 0.1 µM
[33] = second compound 10 µM, first compound 0.316 µM
[34] = second compound 10 µM, first compound 1 µM
[35] = second compound 10 µM, first compound 3.16 µM
[36] = second compound 10 µM, first compound 10 µM

## CC(C)n1c(=O)n(C)c2cnc3cc(F)c(-c4ccc(OCCCN5CCCCC5)nc4)cc3c21 + Cc1[nH]c2ccc(F)cc2c1-c1nc2c3cccnc3c3ncccc3c2[nH]1
Second compound 0.0316 µM
  IC50: 3520 nM
Second compound 0.1 µM
  IC50: 4100 nM
Second compound 0.316 µM
  IC50: 2080 nM
Second compound 1 µM
  IC50: < 31.6 nM
Second compound 3.16 µM
  IC50: < 31.6 nM
Second compound 10 µM
  IC50: < 31.6 nM
[1]
  viability, T/C: 99.9%
[2]
  viability, T/C: 84.8%
[3]
  viability, T/C: 92.5%
[4]
  viability, T/C: 69%
[5]
  viability, T/C: 55.5%
[6]
  viability, T/C: 18.6%
[7]
  viability, T/C: 81.2%
[8]
  viability, T/C: 91.8%
[9]
  viability, T/C: 82.6%
[10]
  viability, T/C: 62.3%
[11]
  viability, T/C: 65.6%
[12]
  viability, T/C: 20.5%
[13]
  viability, T/C: 76.4%
[14]
  viability, T/C: 88.8%
[15]
  viability, T/C: 78%
[16]
  viability, T/C: 59%
[17]
  viability, T/C: 44.5%
[18]
  viability, T/C: 12.2%
[19]
  viability, T/C: 4%
[20]
  viability, T/C: 4.91%
[21]
  viability, T/C: 5.53%
[22]
  viability, T/C: 4.22%
[23]
  viability, T/C: 5.34%
[24]
  viability, T/C: 3.26%
[25]
  viability, T/C: 4.58%
[26]
  viability, T/C: 4.72%
[27]
  viability, T/C: 4.85%
[28]
  viability, T/C: 5.73%
[29]
  viability, T/C: 4.75%
[30]
  viability, T/C: 1.86%
[31]
  viability, T/C: 4.57%
[32]
  viability, T/C: 6.24%
[33]
  viability, T/C: 5.89%
[34]
  viability, T/C: 5.99%
[35]
  viability, T/C: 4.07%
[36]
  viability, T/C: 2.35%

## CC1COCCN1c1cc(-c2ccnn2C)c2ccnc(-c3ccn[nH]3)c2n1 (stereo not given) + Cc1[nH]c2ccc(F)cc2c1-c1nc2c3cccnc3c3ncccc3c2[nH]1
Second compound 0.0316 µM
  IC50: 63.5 nM
Second compound 0.1 µM
  IC50: 52.6 nM
Second compound 0.316 µM
  IC50: < 31.6 nM
Second compound 1 µM
  IC50: < 31.6 nM
Second compound 3.16 µM
  IC50: < 31.6 nM
Second compound 10 µM
  IC50: < 31.6 nM
[1]
  viability, T/C: 81.2%
[2]
  viability, T/C: 29.2%
[3]
  viability, T/C: 13.1%
[4]
  viability, T/C: 5.35%
[5]
  viability, T/C: 5.85%
[6]
  viability, T/C: 3.72%
[7]
  viability, T/C: 66.3%
[8]
  viability, T/C: 29.4%
[9]
  viability, T/C: 12.7%
[10]
  viability, T/C: 6.46%
[11]
  viability, T/C: 4.05%
[12]
  viability, T/C: 3.93%
[13]
  viability, T/C: 48.1%
[14]
  viability, T/C: 14.3%
[15]
  viability, T/C: 5.71%
[16]
  viability, T/C: 5.18%
[17]
  viability, T/C: 4.33%
[18]
  viability, T/C: 3.75%
[19]
  viability, T/C: 3.38%
[20]
  viability, T/C: 3.29%
[21]
  viability, T/C: 4.19%
[22]
  viability, T/C: 4.05%
[23]
  viability, T/C: 4.41%
[24]
  viability, T/C: 2.28%
[25]
  viability, T/C: 3.79%
[26]
  viability, T/C: 4.74%
[27]
  viability, T/C: 3.3%
[28]
  viability, T/C: 2.73%
[29]
  viability, T/C: 3.37%
[30]
  viability, T/C: 1.52%
[31]
  viability, T/C: 4.11%
[32]
  viability, T/C: 3.77%
[33]
  viability, T/C: 3.3%
[34]
  viability, T/C: 3.47%
[35]
  viability, T/C: 2.98%
[36]
  viability, T/C: 2.3%

## CC1COCCN1c1cc(C2(O)CC3CCC(C2)O3)c2cnn(-c3ccn[nH]3)c2n1 (stereo not given) + Cc1[nH]c2ccc(F)cc2c1-c1nc2c3cccnc3c3ncccc3c2[nH]1
Second compound 0.0316 µM
  IC50: 37.6 nM
Second compound 0.1 µM
  IC50: 42.3 nM
Second compound 0.316 µM
  IC50: < 31.6 nM
Second compound 1 µM
  IC50: < 31.6 nM
Second compound 3.16 µM
  IC50: < 31.6 nM
Second compound 10 µM
  IC50: < 31.6 nM
[1]
  viability, T/C: 55.6%
[2]
  viability, T/C: 18.9%
[3]
  viability, T/C: 7.44%
[4]
  viability, T/C: 4.8%
[5]
  viability, T/C: 3.59%
[6]
  viability, T/C: 2.02%
[7]
  viability, T/C: 61%
[8]
  viability, T/C: 17.7%
[9]
  viability, T/C: 8.01%
[10]
  viability, T/C: 6.5%
[11]
  viability, T/C: 3.58%
[12]
  viability, T/C: 1.71%
[13]
  viability, T/C: 21.6%
[14]
  viability, T/C: 7.64%
[15]
  viability, T/C: 4.88%
[16]
  viability, T/C: 3.7%
[17]
  viability, T/C: 3.28%
[18]
  viability, T/C: 1.86%
[19]
  viability, T/C: 3%
[20]
  viability, T/C: 3.91%
[21]
  viability, T/C: 3.25%
[22]
  viability, T/C: 3.03%
[23]
  viability, T/C: 3.34%
[24]
  viability, T/C: 1.4%
[25]
  viability, T/C: 3.59%
[26]
  viability, T/C: 4.2%
[27]
  viability, T/C: 3.24%
[28]
  viability, T/C: 3.06%
[29]
  viability, T/C: 3.02%
[30]
  viability, T/C: 1.16%
[31]
  viability, T/C: 3.5%
[32]
  viability, T/C: 2.96%
[33]
  viability, T/C: 4.38%
[34]
  viability, T/C: 2.77%
[35]
  viability, T/C: 3%
[36]
  viability, T/C: 1.15%

## CC1COCCN1c1cc(C2(S(C)(=N)=O)CC2)nc(-c2ccnc3[nH]ccc23)n1 (stereo not given) + Cc1[nH]c2ccc(F)cc2c1-c1nc2c3cccnc3c3ncccc3c2[nH]1
Second compound 0.0316 µM
  IC50: 986 nM
Second compound 0.1 µM
  IC50: 884 nM
Second compound 0.316 µM
  IC50: 426 nM
Second compound 1 µM
  IC50: < 31.6 nM
Second compound 3.16 µM
  IC50: < 31.6 nM
Second compound 10 µM
  IC50: < 31.6 nM
[1]
  viability, T/C: 80%
[2]
  viability, T/C: 86.7%
[3]
  viability, T/C: 80.4%
[4]
  viability, T/C: 49.2%
[5]
  viability, T/C: 14.5%
[6]
  viability, T/C: 7.71%
[7]
  viability, T/C: 87.4%
[8]
  viability, T/C: 98.1%
[9]
  viability, T/C: 74.4%
[10]
  viability, T/C: 48.9%
[11]
  viability, T/C: 13.7%
[12]
  viability, T/C: 6.84%
[13]
  viability, T/C: 81.5%
[14]
  viability, T/C: 74.3%
[15]
  viability, T/C: 60.9%
[16]
  viability, T/C: 21.1%
[17]
  viability, T/C: 7.66%
[18]
  viability, T/C: 3.74%
[19]
  viability, T/C: 4.68%
[20]
  viability, T/C: 4.27%
[21]
  viability, T/C: 4.11%
[22]
  viability, T/C: 3.67%
[23]
  viability, T/C: 4.03%
[24]
  viability, T/C: 2.64%
[25]
  viability, T/C: 4.14%
[26]
  viability, T/C: 5.15%
[27]
  viability, T/C: 4.92%
[28]
  viability, T/C: 4.78%
[29]
  viability, T/C: 3.97%
[30]
  viability, T/C: 2.94%
[31]
  viability, T/C: 3.9%
[32]
  viability, T/C: 4.76%
[33]
  viability, T/C: 5.04%
[34]
  viability, T/C: 3.7%
[35]
  viability, T/C: 3.55%
[36]
  viability, T/C: 2.63%

## COc1ccc([C@@H](O)c2cc(-c3ncnc4cc(N5CCOCC5)ccc34)c(F)cc2Cl)nn1 + Cc1[nH]c2ccc(F)cc2c1-c1nc2c3cccnc3c3ncccc3c2[nH]1
Second compound 0.0316 µM
  IC50: 797 nM
Second compound 0.1 µM
  IC50: 812 nM
Second compound 0.316 µM
  IC50: 762 nM
Second compound 1 µM
  IC50: < 31.6 nM
Second compound 3.16 µM
  IC50: < 31.6 nM
Second compound 10 µM
  IC50: < 31.6 nM
[1]
  viability, T/C: 92%
[2]
  viability, T/C: 76.5%
[3]
  viability, T/C: 86.5%
[4]
  viability, T/C: 40.7%
[5]
  viability, T/C: 21.9%
[6]
  viability, T/C: 6.2%
[7]
  viability, T/C: 92.2%
[8]
  viability, T/C: 89.6%
[9]
  viability, T/C: 91.5%
[10]
  viability, T/C: 40.6%
[11]
  viability, T/C: 19.5%
[12]
  viability, T/C: 5.14%
[13]
  viability, T/C: 66.3%
[14]
  viability, T/C: 83.1%
[15]
  viability, T/C: 82.6%
[16]
  viability, T/C: 41.5%
[17]
  viability, T/C: 12.3%
[18]
  viability, T/C: 4.85%
[19]
  viability, T/C: 3.85%
[20]
  viability, T/C: 4.89%
[21]
  viability, T/C: 4.79%
[22]
  viability, T/C: 4.97%
[23]
  viability, T/C: 4%
[24]
  viability, T/C: 5.1%
[25]
  viability, T/C: 3.89%
[26]
  viability, T/C: 4.57%
[27]
  viability, T/C: 3.71%
[28]
  viability, T/C: 4.88%
[29]
  viability, T/C: 3.87%
[30]
  viability, T/C: 3.46%
[31]
  viability, T/C: 3.68%
[32]
  viability, T/C: 3.5%
[33]
  viability, T/C: 4.28%
[34]
  viability, T/C: 4.13%
[35]
  viability, T/C: 5.35%
[36]
  viability, T/C: 3.84%
